Assay results reported in US9636345B2, “Benzimidazole derivatives useful TRPM8 channel modulators” (Janssen Pharmaceutica NV, priority 2009, dated 2017).
Read-outs that look alike come from different tables or passages of the source.

Biological target: T1, canine TRPM8 (Canis lupus familiaris, UniProt Q1A7N1)
T1 construct: expressed in transfected cells
Test: In vitro canine TRPM8 functional assay (icilin-induced intracellular Ca2+ increase, FLIPR/FDSS)
Type: cell-based
Conditions: for % Inh @ 0.2 μM / inhibition at 0.2 µM: 0.2 μM compound, HEK293 canine TRPM8; for % Inh @ 1 μM / inhibition at 1 µM: 1 μM compound, samples diluted from 10 mM stock with 100% DMSO; for IC50: read-out: IC50
Procedure: The functional activity of representative compounds of the formula (I) of the present invention was quantified by measuring changes in intracellular calcium concentration using a Ca^2+-sensitive fluorescent dye. The changes in fluorescent signal were monitored by a fluorescence plate reader, either a FLIPR™ (Molecular Devices) or FDSS (Hamamatsu).
HEK293 cells stably expressing canine TRPM8 were routinely grown as monolayers in Dulbecco's minimum essential medium supplemented with 10% FBS, 2 mM L-glutamine, 100 units/mL penicillin, 100 ug/mL streptomycin and 400 μg/mL G418. Cells were maintained in 5% CO2 at 37° C. At 24 hr prior to assay, cells were seeded in black wall, clear-base poly-D-lysine coated 384-well plates (BD Biosciences, N.J., USA) at a density of 5,000 cells per well in culture medium and grown overnight in 5% CO2 at 37° C. On assay day, growth media was removed, and cells were loaded with Calcium 3 Dye (Molecular Devices) for 35 min at 37° C., under 5% CO2 and then incubated for 25 min at room temperature and atmosphere. Subsequently, cells were tested for agonist-induced increases in intracellular Ca^2+ levels using FLIPR™ or FDSS. Cells were treated with compounds of the formula (I) at varying concentrations and intracellular Ca^2+ was measured for 5 min prior to the addition of icilin to all wells to achieve a final concentration that produces approximately an 80% maximal response.
Basal FI was subtracted prior to normalizing data to percent of maximal response. Curves were generated using the average of quadruplicate wells for each data point using nonlinear regression of either sigmoidal dose response or sigmoidal dose response (variable slope). Finally, the EC50 and IC50 values were calculated with the best-fit curve determined by GraphPad Prism
Test samples were prepared by diluting a 10 mM stock solution of test compound with 100% DMSO prior to addition to assay buffer.

[1] = re-test, samples diluted from 10 mM stock with 100% DMSO before addition to assay buffer, Table 7
[2] = HEK293 cells stably expressing canine TRPM8, icilin at ~80% maximal response, Table 6

T1 sequence (Q1A7N1 1-1104): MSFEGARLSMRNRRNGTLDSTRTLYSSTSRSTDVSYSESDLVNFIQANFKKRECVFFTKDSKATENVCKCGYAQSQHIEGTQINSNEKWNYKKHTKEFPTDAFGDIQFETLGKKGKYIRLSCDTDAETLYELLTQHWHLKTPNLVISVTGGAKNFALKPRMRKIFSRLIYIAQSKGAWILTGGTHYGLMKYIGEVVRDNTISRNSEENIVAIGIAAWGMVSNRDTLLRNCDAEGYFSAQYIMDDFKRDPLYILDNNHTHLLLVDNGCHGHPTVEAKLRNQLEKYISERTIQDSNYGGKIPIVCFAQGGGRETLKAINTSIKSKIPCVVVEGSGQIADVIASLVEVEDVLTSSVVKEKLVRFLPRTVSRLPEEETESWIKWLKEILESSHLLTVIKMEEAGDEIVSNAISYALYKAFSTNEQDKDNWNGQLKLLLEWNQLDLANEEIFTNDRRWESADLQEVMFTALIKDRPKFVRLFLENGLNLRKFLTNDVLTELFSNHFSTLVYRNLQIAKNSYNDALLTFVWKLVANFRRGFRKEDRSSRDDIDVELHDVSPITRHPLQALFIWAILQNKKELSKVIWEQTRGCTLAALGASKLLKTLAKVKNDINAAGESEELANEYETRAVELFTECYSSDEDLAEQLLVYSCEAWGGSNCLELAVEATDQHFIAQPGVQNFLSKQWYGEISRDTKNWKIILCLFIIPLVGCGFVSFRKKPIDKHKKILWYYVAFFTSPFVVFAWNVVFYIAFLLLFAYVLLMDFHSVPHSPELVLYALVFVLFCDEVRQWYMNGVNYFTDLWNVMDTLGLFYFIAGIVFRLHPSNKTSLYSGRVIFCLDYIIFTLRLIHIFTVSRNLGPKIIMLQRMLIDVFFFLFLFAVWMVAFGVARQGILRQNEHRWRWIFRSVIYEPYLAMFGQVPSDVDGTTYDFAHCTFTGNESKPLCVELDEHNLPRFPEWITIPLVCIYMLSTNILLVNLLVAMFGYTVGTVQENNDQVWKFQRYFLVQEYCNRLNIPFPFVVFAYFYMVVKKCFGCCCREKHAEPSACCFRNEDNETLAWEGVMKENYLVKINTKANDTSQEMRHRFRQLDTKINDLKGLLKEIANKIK

| SMILES | % Inh @ 0.2 μM (Table 6) [%] | inhibition at 0.2 µM (Table 6) [%] | other results |
| --- | --- | --- | --- |
| Cn1c(=NS(=O)(=O)c2ccccc2)n(Cc2ccccc2)c2ccccc21 [Compound 3] | 8 | – | % Inh @ 1 μM (re-test, Table 7): 40% |
| Cn1/c(=N/S(=O)(=O)c2ccccc2)n(Cc2cccc(C(F)(F)F)c2)c2ccccc21 [Compound 4, N-[1-Methyl-3-(3-trifluoromethyl-benzyl)-1,3-dihydro-benzimidazol-2-ylidene]-benzenesulfonamide] | – | 42 | – |
| Cn1c(=NS(=O)(=O)c2ccccc2)n(Cc2ccc(F)c(F)c2)c2ccccc21 [Compound 7] | 24 | – | – |
| Cn1c(=NS(=O)(=O)c2ccccc2)n(Cc2ccc(F)cc2)c2ccccc21 [Compound 8] | 20 | – | – |
| Cn1c(=NS(=O)(=O)c2ccccc2)n(Cc2cc(C(F)(F)F)ccc2F)c2ccccc21 [Compound 9] | 39 | – | – |
| CCn1c(=NS(=O)(=O)c2ccccc2)n(Cc2ccc(C(F)(F)F)cc2)c2ccccc21 [Compound 15] | 85 | – | IC50 [2]: 69 nM |
| Cn1c(=NS(=O)(=O)c2ccc(C(F)(F)F)cc2)n(Cc2ccc(C(F)(F)F)c(F)c2)c2ccccc21 [Compound 23] | – | 3 | inhibition at 1 µM (re-test, Table 7): 59%; IC50 [1]: 764 nM |
| CCn1c(=NS(=O)(=O)c2ccccc2)n(Cc2ccc(C(F)(F)F)c(F)c2)c2ccccc21 [Compound 25] | 62 | – | – |
| CC(C)Cn1c(=NS(=O)(=O)c2ccccc2)n(Cc2ccc(C(F)(F)F)c(F)c2)c2ccccc21 [Compound 26] | – | 100 | IC50 [2]: 14 nM |
| CC(C)Cn1c(=NS(=O)(=O)c2ccccc2)n(Cc2ccc(C(F)(F)F)cc2)c2ccccc21 [Compound 27] | 71 | – | IC50 [2]: 43 nM |
| Cn1c(=NS(=O)(=O)c2ccccc2)n(Cc2ccc(C(F)(F)F)cc2)c2cc(C(F)(F)F)ccc21 [Compound 29] | 19 | – | – |
| Cn1c(=NS(=O)(=O)c2ccccc2)n(Cc2ccc(C(F)(F)F)c(F)c2)c2cc(C(F)(F)F)ccc21 [Compound 31] | – | 71 | IC50 [2]: 39 nM |
| CCn1c(=NS(=O)(=O)c2ccccc2)n(Cc2ccc(C(F)(F)F)c(F)c2)c2cc(F)ccc21 [Compound 33] | 70 | – | – |
| CC(C)n1c(=NS(=O)(=O)c2ccccc2)n(Cc2ccc(OC(F)(F)F)cc2)c2cc(C(F)(F)F)ccc21 [Compound 34] | – | 95 | IC50 [2]: 24 nM |
| CC(C)n1c(=NS(=O)(=O)c2ccccc2)n(Cc2ccc(C(F)(F)F)c(F)c2)c2cc(C(F)(F)F)ccc21 [Compound 35] | 100 | – | IC50 [2]: 10 nM |
| CCn1/c(=N/S(=O)(=O)c2ccccc2)n(Cc2ccc(C(F)(F)F)cc2)c2cc(F)ccc21 [Compound 39, N-[1-Ethyl-5-fluoro-3-(4-trifluoromethyl-benzyl)-1,3-dihydro-benzimidazol-2-ylidene]-benzenesulfonamide] | – | 26 | – |
| O=S(=O)(N=c1n(Cc2ccc(C(F)(F)F)cc2)c2ccccc2n1CC(F)(F)F)c1ccccc1 [Compound 40] | – | 9 | inhibition at 1 µM (re-test, Table 7): 57%; IC50 [1]: 426 nM |
| Cn1c(=NS(=O)(=O)c2ccccc2)n(Cc2ccc(C(F)(F)F)c(F)c2)c2cc(F)ccc21 [Compound 41] | 6 | – | % Inh @ 1 μM (re-test, Table 7): 79% |
| CC(C)n1c(=NS(=O)(=O)c2ccccc2)n(Cc2ccc(C(F)(F)F)c(F)c2)c2cc(Cl)ccc21 [Compound 42] | – | 95 | IC50 [2]: 26 nM |
| O=S(=O)(/N=c1\n(Cc2ccc(C(F)(F)F)c(F)c2)c2ccccc2n1CC(F)(F)F)c1ccccc1 [Compound 43, N-[1-(3-Fluoro-4-trifluoromethyl-benzyl)-3-(2,2,2-trifluoro-ethyl)-1,3-dihydro-benzimidazol-2-ylidene]-benzenesulfonamide] | – | 89 | IC50 [2]: 21 nM |
| O=S(=O)(N=c1n(Cc2ccc(C(F)(F)F)cc2)c2ccccc2n1CC1CC1)c1ccccc1 [Compound 49] | – | 71 | IC50 [2]: 110 nM |
| O=S(=O)(/N=c1\n(Cc2ccc(C(F)(F)F)c(F)c2)c2ccccc2n1CC1CC1)c1ccccc1 [Compound 50, N-[1-Cyclopropylmethyl-3-(3-fluoro-4-trifluoromethyl-benzyl)-1,3-dihydro-benzimidazol-2-ylidene]-benzenesulfonamide] | – | 94 | IC50 [2]: 86 nM |
| O=S(=O)(N=c1n(Cc2ccc(C(F)(F)F)c(F)c2)c2cccc3c2n1CCC3)c1ccccc1 [Compound 51] | 14 | – | – |
| O=S(=O)(N=c1n(Cc2ccc(C(F)(F)F)cc2)c2cccc3c2n1CCC3)c1ccccc1 [Compound 53] | 16 | – | – |

Further lines, with some results ahead:

| % Inh @ 0.2 μM (Table 6) [%] | inhibition at 0.2 µM (Table 6) [%] | SMILES | other results |
| --- | --- | --- | --- |
| 40 | – | Cn1c(=NS(=O)(=O)c2ccccc2)n(Cc2ccc(F)c(C(F)(F)F)c2)c2ccccc21 [Compound 1] | – |
| 34 | – | Cn1c(=NS(=O)(=O)c2ccccc2)n(Cc2ccc(OC(F)(F)F)cc2)c2ccccc21 [Compound 2] | – |
| 50 | – | Cn1c(=NS(=O)(=O)c2ccccc2)n(Cc2cccc(OC(F)(F)F)c2)c2ccccc21 [Compound 5] | – |
| 2 | – | Cn1c(=NS(=O)(=O)c2ccccc2)n(Cc2ccc(C(F)(F)F)cc2)c2ccccc21 [Compound 6] | % Inh @ 1 μM (re-test, Table 7): 65% |
| 22 | – | Cn1c(=NS(=O)(=O)c2ccccc2)n(Cc2ccc(C(F)(F)F)c(F)c2)c2ccccc21 [Compound 10] | – |
| 38 | – | Cn1c(=NS(=O)(=O)c2ccccc2)n(Cc2ccc(F)c(Cl)c2)c2ccccc21 [Compound 11] | – |
| 11 | – | Cn1c(=NS(=O)(=O)c2ccccc2)n(Cc2ccc(SC(F)(F)F)cc2)c2ccccc21 [Compound 12] | – |
| – | 9 | Cn1c(=NS(=O)(=O)c2ccccc2)n(Cc2ccc(OC(F)F)cc2)c2ccccc21 [Compound 13] | inhibition at 1 µM (re-test, Table 7): 55%; IC50 [1]: 764 nM |
| 75 | – | CCn1c(=NS(=O)(=O)c2ccccc2)n(Cc2ccc(OC(F)(F)F)cc2)c2ccccc21 [Compound 14] | IC50 [2]: 100 nM |
| 1 | – | Cn1c(=NS(=O)(=O)c2ccc(F)cc2)n(Cc2ccc(C(F)(F)F)cc2)c2ccccc21 [Compound 16] | % Inh @ 1 μM (re-test, Table 7): 57% |
| – | 6 | Cn1c(=NS(=O)(=O)c2ccc(F)cc2)n(Cc2ccc(OC(F)(F)F)cc2)c2ccccc21 [Compound 17] | inhibition at 1 µM (re-test, Table 7): 60%; IC50 [1]: 606 nM |
| – | 1 | Cn1c(=NS(=O)(=O)c2ccc(C(F)(F)F)cc2)n(Cc2ccc(OC(F)(F)F)cc2)c2ccccc21 [Compound 18] | inhibition at 1 µM (re-test, Table 7): 57%; IC50 [1]: 635 nM |
| 13 | – | Cn1c(=NS(=O)(=O)c2ccc(Cl)cc2)n(Cc2ccc(C(F)(F)F)cc2)c2ccccc21 [Compound 19] | – |
| – | 2 | Cn1c(=NS(=O)(=O)c2ccc(Cl)cc2)n(Cc2ccc(OC(F)(F)F)cc2)c2ccccc21 [Compound 20] | inhibition at 1 µM (re-test, Table 7): 74%; IC50 [1]: 430 nM |
| – | 8 | Cn1c(=NS(=O)(=O)c2ccc(C(F)(F)F)cc2)n(Cc2ccc(C(F)(F)F)cc2)c2ccccc21 [Compound 21] | inhibition at 1 µM (re-test, Table 7): 59%; IC50 [1]: 588 nM |
| 6 | – | Cn1c(=NS(=O)(=O)c2ccc(Cl)cc2)n(Cc2ccc(C(F)(F)F)c(F)c2)c2ccccc21 [Compound 22] | % Inh @ 1 μM (re-test, Table 7): 77%; IC50 [1]: 512 nM |
| 3 | – | Cn1c(=NS(=O)(=O)c2ccc(F)cc2)n(Cc2ccc(C(F)(F)F)c(F)c2)c2ccccc21 [Compound 24] | % Inh @ 1 μM (re-test, Table 7): 85%; IC50 [1]: 379 nM |
| – | 70 | CC(C)Cn1c(=NS(=O)(=O)c2ccccc2)n(Cc2ccc(OC(F)(F)F)cc2)c2ccccc21 [Compound 28] | IC50 [2]: 58 nM |
| 17 | – | Cn1c(=NS(=O)(=O)c2ccccc2)n(Cc2ccc(OC(F)(F)F)cc2)c2cc(C(F)(F)F)ccc21 [Compound 30] | – |
| 36 | – | CCn1c(=NS(=O)(=O)c2ccccc2)n(Cc2ccc(OC(F)(F)F)cc2)c2cc(F)ccc21 [Compound 36] | – |
| 1 | – | Cn1c(=NS(=O)(=O)c2ccccc2)n(Cc2ccc(C(F)(F)F)cc2)c2cc(F)ccc21 [Compound 38] | % Inh @ 1 μM (re-test, Table 7): 24% |
| 37 | – | O=S(=O)(N=c1n(Cc2ccc(OC(F)(F)F)cc2)c2ccccc2n1CC(F)(F)F)c1ccccc1 [Compound 44] | – |
| 66 | – | CC(C)n1c(=NS(=O)(=O)c2ccccc2)n(Cc2ccc(OC(F)(F)F)cc2)c2cc(Cl)ccc21 [Compound 45] | – |
| 1 | – | Cn1c(=NS(=O)(=O)c2ccccc2)n(Cc2ccc(OC(F)(F)F)cc2)c2cc(F)ccc21 [Compound 46] | % Inh @ 1 μM (re-test, Table 7): 58% |
| 67 | – | O=S(=O)(N=c1n(Cc2ccc(OC(F)(F)F)cc2)c2ccccc2n1CC1CC1)c1ccccc1 [Compound 48] | – |
| 18 | – | O=S(=O)(N=c1n(Cc2ccc(OC(F)(F)F)cc2)c2cccc3c2n1CCC3)c1ccccc1 [Compound 52] | – |
